{"source": "paper PMC8564765", "about": "(Journal of medicinal chemistry, 2021)", "test_system": "MPO activity", "test": "MR imaging of CFA-induced subcutaneous inflammation", "type": "in vivo", "details": "wild-type mice, 0.3 mmol/kg"}
{"smiles": "CNC[C@H](O)[C@@H](O)[C@H](O)[C@H](O)CO.O=C([O-])CN1CCN(CC(=O)[O-])CCN(CC(=O)O)CCN(CC(=O)[O-])CC1.[Gd+3]", "note": "[DOTA-Gd, gadoterate meglumine]", "values": [{"measurement": "Course of CNR over 60 min", "result": "decreased rapidly over time"}]}
